# “Also recorded” adds a separate entry of the source. Read-outs that look alike come from different tables or passages of the source.
# How the values were obtained:
# Rat P45017α = target: T1, Rat P45017α (Rattus norvegicus, UniProt P11715); experiment: Inhibition of rat testicular microsomal P45017α (lyase activity); type: biochemical; conditions: for Increase of potency towards the rat enzyme compared with human P45017α: from IC50 values, rat vs human testicular microsomes
# T1 sequence (P11715 1-507): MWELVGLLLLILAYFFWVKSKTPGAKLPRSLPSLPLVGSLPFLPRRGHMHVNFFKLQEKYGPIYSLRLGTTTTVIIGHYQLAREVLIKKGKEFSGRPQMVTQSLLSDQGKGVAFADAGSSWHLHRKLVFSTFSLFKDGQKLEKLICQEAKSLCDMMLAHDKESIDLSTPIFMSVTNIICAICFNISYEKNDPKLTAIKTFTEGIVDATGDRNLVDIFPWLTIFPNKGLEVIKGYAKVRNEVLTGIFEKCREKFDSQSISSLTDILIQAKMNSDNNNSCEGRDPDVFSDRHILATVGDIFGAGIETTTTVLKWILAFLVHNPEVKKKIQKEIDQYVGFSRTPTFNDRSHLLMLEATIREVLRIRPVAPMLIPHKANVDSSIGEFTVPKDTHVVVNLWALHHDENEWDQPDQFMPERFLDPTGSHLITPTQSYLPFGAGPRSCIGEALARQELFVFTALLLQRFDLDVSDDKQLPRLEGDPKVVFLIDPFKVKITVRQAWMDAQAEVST
# Protocol: (§1) The microsomes were stored at −70° C. until assayed. Just before use, the thawed microsomes were diluted with 0.1 M phosphate buffer (pH 7.4) to appropriate concentrations.
# (§2) This assay measures only the lyase activity of the P45017α enzyme.
# (§3) IC50 values for inhibitors were calculated from the linear regression line in the plot of logit of lyase activity versus log of inhibitor concentration. […] Each inhibitor was examined at three concentrations.
# [1] = target: T2, human prostate 5α-reductase (Homo sapiens, UniProt P31213); experiment: Inhibition of human prostate 5α-reductase in BPH microsomes (conversion of [7-3H]-testosterone to DHT); type: biochemical; conditions: for Inhibition of 5α-reductase, in words: human prostate enzyme
# T2 construct: The enzymatic reactions were initiated by addition of human BPH microsomes; from tissue; host or cells: human benign prostatic hyperplasia (BPH) tissue, microsomal fraction
# T2 sequence (P31213 1-254): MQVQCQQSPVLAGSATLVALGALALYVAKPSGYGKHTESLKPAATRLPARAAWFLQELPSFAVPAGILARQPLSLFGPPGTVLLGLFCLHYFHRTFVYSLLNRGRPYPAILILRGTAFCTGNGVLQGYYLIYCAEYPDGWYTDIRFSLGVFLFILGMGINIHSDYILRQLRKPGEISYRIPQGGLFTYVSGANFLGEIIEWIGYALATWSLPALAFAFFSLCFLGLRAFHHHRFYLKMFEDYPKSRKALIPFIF
# Protocol: […] The ethanol was evaporated to dryness under a gentle stream of air. […] The enzymatic reactions were initiated by addition of human BPH microsomes (about 180 μg of microsomal protein in 500 μl of phosphate buffer) in a total volume of 1.0 ml, and the incubations were performed for 10 min under oxygen in a shaking water bath at 37° C. The incubations were terminated by placing the sample tubes on ice and the addition of ether. Also, [^14C]-DHT (3000 dpm) and cold DHT (50 μg) were added to each tube as an internal standard and visualization marker, respectively. The steroids were extracted with ether and separated by TLC (chloroform:ether, 80:20) and visualized by exposure to iodine vapor. The extracts were analyzed for ^3H and ^14C using a liquid scintillation counter. The percentage conversion of [7-^3H]-testosterone to [^3H]-dihydrotestosterone was calculated and used to determine 5α-reductase activity.
# Human P45017α = target: T3, Human P45017α (Homo sapiens, UniProt P05093); experiment: Inhibition of human testicular microsomal P45017α (lyase activity, release of C3H3COOH from [21-3H3]-17α-hydroxypregnenolone); type: biochemical; conditions: for Ki: Human P45017α Ki; for Inhibition of human P45017α, in words: human testicular microsomes; for inhibition at 0.15 µM: read-out: % Inhibition of human P45017α
# T3 construct: Human testicular microsomes were prepared from human testes; from tissue; host or cells: human testes (untreated prostatic cancer patients undergoing orchidectomy), microsomal fraction
# T3 sequence (P05093 1-508): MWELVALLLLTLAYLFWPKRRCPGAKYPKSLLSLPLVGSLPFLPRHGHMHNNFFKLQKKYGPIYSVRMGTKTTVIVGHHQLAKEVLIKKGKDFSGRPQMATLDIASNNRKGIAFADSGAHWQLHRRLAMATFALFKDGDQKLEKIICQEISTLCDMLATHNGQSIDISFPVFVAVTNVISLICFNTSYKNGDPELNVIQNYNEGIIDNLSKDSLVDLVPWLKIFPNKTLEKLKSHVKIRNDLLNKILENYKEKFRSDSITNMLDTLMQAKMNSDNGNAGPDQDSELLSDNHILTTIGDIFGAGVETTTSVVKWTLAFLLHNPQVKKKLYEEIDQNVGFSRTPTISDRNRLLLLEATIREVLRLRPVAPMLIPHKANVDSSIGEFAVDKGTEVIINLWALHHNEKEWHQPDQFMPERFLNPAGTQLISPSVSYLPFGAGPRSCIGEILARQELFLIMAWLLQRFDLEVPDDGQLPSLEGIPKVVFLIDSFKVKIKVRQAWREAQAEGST
# Protocol: as §1, §2, §3
# [2] = tested on: LNCaP human prostatic cancer cell; experiment: Androgen-stimulated growth of LNCaP human prostatic cancer cells in vitro
# [3] = rat testicular microsomes, mean ± SDM of at least two experiments, read-out: Rat P45017α IC50
# [4] = human BPH microsomes, mean ± SDM of at least two experiments, read-out: 5α-Reductase IC50
# [5] = from Lineweaver-Burk plots and slope replots, Km of 17α-hydroxypregnenolone 560 nM
# [6] = inhibitor 150 nM, substrate 17α-hydroxypregnenolone 10 μM, mean of two determinations
Structure (SMILES),melting point,Increase of potency towards the rat enzyme compared with human P45017α (Rat P45017α),"Inhibition of rat testicular P45017α, in words (Rat P45017α; rat testicular microsomes)","Inhibition of 5α-reductase, in words [1]",IC50 (Human P45017α) [nM],"Inhibition of human P45017α, in words (Human P45017α)",% Inhibition of human P45017α (Human P45017α; [6]),further results
"C[C@]12CC[C@H](O)CC1=CC[C@@H]1[C@@H]2CC[C@]2(C)C(n3cncn3)=CC[C@@H]12 [Compound 6, 3β-hydroxy-17-(1H, 1,2,4-triazol-1-yl)androsta-5,16-diene]",185 to 189 °C (dec.),3.5 fold,powerful inhibitors,poor inhibitors,90,potent inhibitors; also recorded: powerful inhibitors,–,"IC50 (Rat P45017α; [3]): 26 ± 13 nM; IC50 [1, 4]: ~160000 nM; Ki (Human P45017α; [5]): 23 nM; inhibition at 0.15 µM (Human P45017α; [6]): 60%"
"C[C@]12CC[C@H](O)CC1=CC[C@@H]1[C@@H]2CC[C@]2(C)C(n3cccn3)=CC[C@@H]12 [Compound 30, 3β-hydroxy-17-(1H-pyrazol-1-yl)androsta-5,16-diene]",197 to 199 °C,–,–,–,–,moderate inhibitor,–,inhibition at 0.15 µM (Human P45017α; [6]): 40%
"C[C@]12CC[C@H](O)CC1=CC[C@@H]1[C@@H]2CC[C@]2(C)C(n3ccnc3)=CC[C@@H]12 [Compound 11, 3β-hydroxy-17-(1H-imidazol-1-yl)androsta-5,16-diene]",–,unchanged,powerful inhibitors,poor inhibitors; also recorded: neither compound inhibited 5α-reductase,8,potent inhibitors; also recorded: powerful inhibitors,–,"IC50 (Rat P45017α): 9 ± 2 nM; inhibition at 2.5 µM ([2]; Homo sapiens, LNCaP, read-out: Inhibition of DHT-induced growth of LNCaP cells): 100%; inhibition at 1 µM ([2]; Homo sapiens, LNCaP, read-out: Inhibition of testosterone-stimulated growth of LNCaP cells): 100%; Toxicity to LNCaP cells ([2]; concentration range 0.5-5.0 μM): nor was toxic to the cells; Antiandrogenic effects ([2]; inferred from inhibition of androgen-stimulated LNCaP growth): strong antiandrogenic effects; IC50 [1]: ~400000 nM; Ki (Human P45017α): 1.2 nM; Nature of inhibition kinetics of P45017α (Human P45017α; Lineweaver-Burk analysis, progress curves): slow-binding inhibitor; inhibition at 0.15 µM (Human P45017α): 97%"
"C[C@]12CC[C@H](O)CC1=CC[C@@H]1[C@@H]2CC[C@]2(C)C(n3cnnn3)=CC[C@@H]12 [Compound 27, 3β-hydroxy-17-(1H-tetrazol-1-yl)androsta-5,16-diene]",200 to 204 °C (dec.),–,–,–,–,non-inhibitory,N.I.^c,–
"C[C@]12CCC(=O)C=C1CC[C@@H]1[C@@H]2CC[C@]2(C)C(n3ccnn3)=CC[C@@H]12 [Compound 21, 17-(1H-1,2,3-triazol-1-yl)androsta-4,16-diene-3-one]",118 to 120 °C,2 fold,powerful inhibitors,potent inhibitors,19 ± 1,powerful inhibitors,–,"IC50 (Rat P45017α; [3]): 9 ± 2 nM; IC50 [1, 4]: 198 ± 33 nM; Ki (Human P45017α; [5]): 8 nM"
CC(=O)O[C@H]1CC[C@@]2(C)C(=CC[C@@H]3[C@@H]2CC[C@]2(C)C(n4ccnn4)=CC[C@@H]32)C1,158 to 160 °C,–,–,–,–,–,–,–
"C[C@]12CC[C@H](O)CC1=CC[C@@H]1[C@@H]2CC[C@]2(C)C(n3nccn3)=CC[C@@H]12 [Compound 18, 3β-hydroxy-17-(2H-1,2,3-triazol-2-yl)androsta-5,16-diene]",176 to 177 °C,–,–,–,–,non-inhibitory,N.I.^c,–
"C[C@]12CC[C@H](O)CC1=CC[C@@H]1[C@@H]2CC[C@]2(C)C(n3ncnn3)=CC[C@@H]12 [Compound 25, 3β-hydroxy-17-(2H-tetrazol-2-yl)androsta-5,16-diene]",195 to 198 °C,–,–,–,–,non-inhibitory,N.I.^c,–
CC(=O)O[C@H]1CC[C@@]2(C)C(=CC[C@@H]3[C@@H]2CC[C@]2(C)C(n4nccn4)=CC[C@@H]32)C1,154 to 155 °C,–,–,–,–,–,–,–
